Laboratory results taken from the supplement of paper PMC10307832.

Columns and labels:
Test in all cases: relative viability (nuclei count vs DMSO), 5 days (fraction); higher = more cells survive
Bosutinib = compound: COc1cc(Nc2c(C#N)cnc3cc(OCCCN4CCN(C)CC4)c(OC)cc23)c(Cl)cc1Cl [Bosutinib]
In short: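 Vehicle-anchored 1536-well plates of lung cancer cell lines, held overnight at 37 °C, were pinned with five library-drug doses (not always all listed) spaced by √10. No medium change followed over the next 5 days, after which the cells were fixed, permeabilised and Hoechst-stained together and imaged at 4×. Nuclei were counted with MetaXpress, and viability is treated-well nuclei over vehicle-well nuclei, taken as a median across plates. Plates passed with control CV below 25% and at least one doubling.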

Bosutinib + Trametinib = compound: COc1cc(Nc2c(C#N)cnc3cc(OCCCN4CCN(C)CC4)c(OC)cc23)c(Cl)cc1Cl [Bosutinib] + CC(=O)Nc1cccc(-n2c(=O)n(C3CC3)c(=O)c3c(Nc4ccc(I)cc4F)n(C)c(=O)c(C)c32)c1 [Trametinib] (partner 0.02 µM)
In short: (§1)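 After 5 days of treatment, lung cancer cells in 1536-well plates were fixed and stained in a single step (final 0.05% Triton X-100, 1% formaldehyde, 1 ug/ml Hoechst) and their nuclei counted on 4× images. Treatment had been applied by pin tool the day after seeding as one drug alone or as a fixed anchor-drug dose with five library-drug doses (not always all listed) in √10 steps. Relative viability is the nuclei count of treated wells divided by that of vehicle wells, and values are medians of duplicate plates.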

Bosutinib + Lapatinib = compound: COc1cc(Nc2c(C#N)cnc3cc(OCCCN4CCN(C)CC4)c(OC)cc23)c(Cl)cc1Cl [Bosutinib] + CS(=O)(=O)CCNCc1ccc(-c2ccc3ncnc(Nc4ccc(OCc5cccc(F)c5)c(Cl)c4)c3c2)o1 [Lapatinib] (partner 2 µM)
In short: as §1

Bosutinib + AZD7762 = compound: COc1cc(Nc2c(C#N)cnc3cc(OCCCN4CCN(C)CC4)c(OC)cc23)c(Cl)cc1Cl [Bosutinib] + NC(=O)Nc1cc(-c2cccc(F)c2)sc1C(=O)N[C@H]1CCCNC1 [AZD7762] (partner 0.2 µM)
In short: as §1

Bosutinib + Vorinostat = compound: COc1cc(Nc2c(C#N)cnc3cc(OCCCN4CCN(C)CC4)c(OC)cc23)c(Cl)cc1Cl [Bosutinib] + O=C(CCCCCCC(=O)Nc1ccccc1)NO [Vorinostat] (partner 1 µM)
In short: as §1

Cell Line | relative viability (Bosutinib; 0.01 µM) | relative viability (Bosutinib; 0.03162 µM) | relative viability (Bosutinib; 0.1 µM) | relative viability (Bosutinib; 1 µM) | relative viability (Bosutinib + Trametinib; first compound 0.01 µM) | relative viability (Bosutinib + Trametinib; first compound 0.03162 µM) | relative viability (Bosutinib + Trametinib; first compound 0.1 µM) | relative viability (Bosutinib + Trametinib; first compound 1 µM) | relative viability (Bosutinib + Lapatinib; first compound 0.01 µM) | relative viability (Bosutinib + Lapatinib; first compound 0.03162 µM) | relative viability (Bosutinib + Lapatinib; first compound 0.1 µM) | relative viability (Bosutinib + Lapatinib; first compound 1 µM) | relative viability (Bosutinib + AZD7762; first compound 0.01 µM) | relative viability (Bosutinib + AZD7762; first compound 0.03162 µM) | relative viability (Bosutinib + AZD7762; first compound 0.1 µM) | relative viability (Bosutinib + AZD7762; first compound 1 µM) | relative viability (Bosutinib + Vorinostat; first compound 0.01 µM) | relative viability (Bosutinib + Vorinostat; first compound 0.03162 µM) | relative viability (Bosutinib + Vorinostat; first compound 0.1 µM) | relative viability (Bosutinib + Vorinostat; first compound 1 µM)
EKVX | 0.927 | 0.971 | 0.952 | 0.85 | 0.306 | 0.334 | 0.364 | 0.228 | 0.231 | 0.216 | 0.242 | 0.172 | 0.441 | 0.751 | 0.735 | 0.656 | 0.645 | 0.73 | 0.747 | 0.629
HARA | 1.07 | 1.02 | 0.993 | 0.791 | 0.943 | 0.745 | 0.633 | 0.57 | 0.7 | 0.657 | 0.757 | 0.76 | 0.304 | 0.308 | 0.297 | 0.644 | 0.544 | 0.654 | 0.754 | 0.592
EMC-BAC-2 | 0.95 | 1.09 | 1.09 | 0.928 | 0.848 | 0.887 | 0.857 | 0.773 | 0.878 | 0.835 | 0.86 | 0.873 | 1.18 | 1.11 | 1.13 | 1.09 | 0.427 | 0.713 | 0.831 | 0.396
PC-14 | 1.03 | 0.977 | 0.871 | 0.336 | 0.721 | 0.675 | 0.491 | 0.13 | 0.35 | 0.309 | 0.298 | 0.227 | 0.351 | 0.284 | 0.287 | 0.193 | 0.783 | 0.694 | 0.673 | 0.126
NCI-H1755 | 1.01 | 1.09 | 1.03 | 0.951 | 0.706 | 0.798 | 0.856 | 0.76 | 1.03 | 1.11 | 1.06 | 0.915 | 0.412 | 0.462 | 0.446 | 0.418 | 0.809 | 0.919 | 0.904 | 0.731
NCI-H2087 | 1.07 | 1.04 | 0.951 | 1.08 | 0.156 | 0.218 | 0.228 | 0.223 | 0.956 | 1.07 | 1.1 | 1.09 | 1.54 | 1.13 | 1.31 | 1.24 | 0.777 | 0.5 | 0.647 | 0.697
CAL-12T | 1.06 | 0.96 | 0.95 | 0.914 | 0.28 | 0.366 | 0.334 | 0.234 | 0.755 | 0.706 | 0.82 | 0.551 | 0.576 | 0.529 | 0.596 | 0.515 | 0.756 | 0.773 | 0.664 | 0.528
NCI-H2085 | 0.969 | 0.938 | 0.919 | 0.928 | 0.564 | 0.467 | 0.54 | 0.5 | 0.749 | 0.747 | 0.813 | 0.744 | 1.1 | 0.903 | 0.939 | 0.65 | 0.866 | 0.769 | 0.788 | 0.705
NCI-H650 | 1 | 1.06 | 1.08 | 1.11 | 0.907 | 0.918 | 0.961 | 0.975 | 0.889 | 1.07 | 0.948 | 1.15 | 0.908 | 0.992 | 1.04 | 0.981 | 0.446 | 0.356 | 0.483 | 0.415
LCLC-97TM1 | 1.03 | 0.969 | 1.06 | 1.04 | 0.201 | 0.209 | 0.192 | 0.179 | 1.43 | 1.29 | 1.24 | 1.14 | 0.31 | 0.286 | 0.315 | 0.191 | 0.925 | 0.763 | 0.811 | 0.823
NCI-H2126 | 0.972 | 0.997 | 0.969 | 0.994 | 0.528 | 0.546 | 0.559 | 0.536 | 0.742 | 0.718 | 0.724 | 0.701 | 0.982 | 1.04 | 1.03 | 1.04 | 0.71 | 0.799 | 0.858 | 0.722
201T | 1 | 0.991 | 1.02 | 0.906 | 0.745 | 0.696 | 0.682 | 0.708 | 1.03 | 1.05 | 1.01 | 0.96 | 0.581 | 0.654 | 0.603 | 0.62 | 0.941 | 1.04 | 1 | 0.894
NCI-H1915 | 0.989 | 1.09 | 1.1 | 1.01 | 0.306 | 0.291 | 0.295 | 0.253 | 0.919 | 0.965 | 0.991 | 1.06 | 0.718 | 0.647 | 0.654 | 0.572 | 0.509 | 0.531 | 0.578 | 0.571
BEN | 0.952 | 0.984 | 1.08 | 0.765 | 1.02 | 0.855 | 1.01 | 0.804 | 0.619 | 0.699 | 0.785 | 0.52 | 0.608 | 0.697 | 0.675 | 0.658 | 0.557 | 0.56 | 0.654 | 0.514
NCI-H2347 | 1.03 | 1.09 | 0.992 | 1.06 | 0.309 | 0.27 | 0.297 | 0.307 | 0.923 | 1.05 | 0.911 | 0.989 | 0.748 | 0.725 | 0.777 | 0.487 | 0.461 | 0.579 | 0.654 | 0.543
H3255 | 0.931 | 0.978 | 0.995 | 0.594 | – | 0.578 | 0.63 | 0.422 | 0.251 | 0.238 | 0.235 | 0.258 | 0.846 | 1.02 | 0.949 | 0.517 | – | 0.832 | 0.858 | 0.768
